Patent publication US11040028B2, “Penicinotam derivative, preparation method and use thereof” (OCEAN UNIVERSITY OF CHINA, priority 2017, dated 2021)

Legend:
Type in all cases: cell-based
[1] = system: BHK-21 cells; assay: Anti-fibrosis activity test: inhibition of BHK-21 cell proliferation (CCK-8); details: Mesocricetus auratus, BHK-21, 48 h
How it was run: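 Read-out: CCK-8 absorbance at 450 nm after 2 h, giving proliferation inhibition (1−Ai/Ao)×100% versus blank control, from which IC50 was derived. Cells had been treated with compounds for 48 h after 24 h adherence at 37° C. Pirfenidone served as positive control.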

[2] = system: human lung fibroblasts HFL1; assay: Anti-fibrosis activity test: inhibition of proliferation of human lung fibroblasts HFL1 (CCK-8); details: Homo sapiens, HFL1, 48 h
How it was run: (§1)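 Cells seeded at 2×10^4 cells/mL, adhered 24 h, then exposed to compound concentrations in triplicate for 48 h at 37° C, 5% CO2. CCK-8 added for 2 h, absorbance at 450 nm; inhibition = (1−Ai/Ao)×100% versus blank control, IC50 calculated.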

[3] = system: human hepatic stellate cells LX-2; assay: Anti-fibrosis activity test: inhibition of proliferation of human hepatic stellate cells LX-2 (CCK-8); details: Homo sapiens, 48 h
How it was run: as §1

[4] = system: human fibrosarcoma cells HT-1080; assay: Anti-fibrosis activity test: inhibition of proliferation of human fibrosarcoma cells HT-1080 (CCK-8); details: Homo sapiens, HT-1080, 48 h
How it was run: as §1

[5] = system: human dermal fibroblasts CCC-ESF-1; assay: Anti-fibrosis activity test: inhibition of proliferation of human dermal fibroblasts CCC-ESF-1 (CCK-8); details: Fibroblast
How it was run: as §1

[6] = system: human embryonic lung fibroblast IMR-90; assay: Anti-fibrosis activity test: inhibition of proliferation of human embryonic lung fibroblast IMR-90 (CCK-8)
How it was run: as §1

[7] = system: cardiac fibroblast RAT-iCell-C002; assay: Anti-fibrosis activity test: inhibition of proliferation of cardiac fibroblast RAT-iCell-C002 (CCK-8); details: Cardiac fibroblast, 48 h
How it was run: as §1

[8] = system: mouse macrophages (RAW264.7); assay: Lipopolysaccharide-induced NO secretion in macrophages (Griess); details: Mus musculus, RAW264.7, 24 h, RAW264.7, LPS 1 μg/ml, a/b isomers given as first/second symbol, read-out: IC50 (μM), inhibition of lipopolysaccharide-induced NO secretion in macrophages
How it was run: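 RAW264.7 macrophages in DMEM with 10% FBS received test samples at several concentrations and were stimulated with 1 μg/ml LPS for 24 h. NO in the supernatant was measured with the Griess reagent at 548 nm, […].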

[9] = CCK-8, 48 hours after administration
[10] = human lung fibroblasts HFL1, CCK-8, 48 hours
[11] = human hepatic stellate cells LX-2, CCK-8, 48 hours
[12] = human fibrosarcoma cells HT-1080, CCK-8, 48 hours
[13] = human dermal fibroblasts CCC-ESF-1, CCK-8, 48 hours
[14] = human embryonic lung fibroblast IMR-90, CCK-8, 48 hours
[15] = cardiac fibroblast RAT-iCell-C002, CCK-8, 48 hours
[16] = Homo sapiens, CCC-ESF-1 cells, 48 h, CCK-8
[17] = Homo sapiens, IMR-90 cells, 48 h, CCK-8

SMILES	IC50 [4, 12] [mM]	IC50 [8] [µM]	IC50 ([4]; HT-1080 cells, 48 h, CCK-8) [mM]	IC50 [1, 9] [mM]	IC50 [2, 10] [mM]	IC50 [3, 11] [mM]	IC50 [5, 13] [mM]	IC50 [6, 14] [mM]	IC50 [7, 15] [mM]	IC50 ([1]; 48 h, CCK-8) [mM]	IC50 ([2]; HFL1 cells, 48 h, CCK-8) [mM]	IC50 ([3]; LX-2, 48 h, LX-2 cells, CCK-8) [mM]	IC50 [5, 16] [mM]	IC50 [6, 17] [mM]	IC50 ([7]; RAT-iCell-C002 cells, CCK-8) [mM]
O=C(Oc1c2c(nc3ccc(F)cc13)-c1cccn1C2=O)c1ccco1 [Compound 150b, 7-fluoro-10-oxo-10H-pyrrolizino[1,2-b]quinolin-9-yl furan-2-carboxylate]	0.05 to 5	1 to 10	–	0.05 to 5	0.05 to 5	< 0.05	0.05 to 5	0.05 to 5	0.05 to 5	–	–	–	–	–	–
CCn1c2c(c(=O)c3cc(F)c(N4CCNCC4)cc31)C(=O)n1cccc1-2 [Compound 329a, 4-Ethyl-7-fluoro-6-(piperazin-1-yl)-9H-pyrrolizino[1,2-b]quinoline-9,10(4H)-dione]	0.05 to 5	1 to 10	–	0.05 to 5	0.05 to 5	0.05 to 5	0.05 to 5	0.05 to 5	5 to 20	–	–	–	–	–	–
O=C1c2c(n(Cc3ccccc3Cl)c3c(C(F)(F)F)cccc3c2=O)-c2cccn21 [Compound 457a, 4-(2-Chlorobenzyl)-5-(trifluoromethyl)-9H-pyrrolizino[1,2-b]quinoline-9,10(4H)-dione]	0.05 to 5	1 to 10	–	0.05 to 5	0.05 to 5	< 0.05	0.05 to 5	0.05 to 5	0.05 to 5	–	–	–	–	–	–
O=C1c2c(n(Cc3ccc(F)cc3)c3cc(Cl)ccc3c2=O)-c2cccn21 [Compound 502a, 6-Chloro-4-(4-fluorobenzyl)-9H-pyrrolizino[1,2-b]quinoline-9,10(4H)-dione]	0.05 to 5	1 to 10	–	0.05 to 5	0.05 to 5	0.05 to 5	0.05 to 5	0.05 to 5	< 0.05	–	–	–	–	–	–
O=C1c2c(n(Cc3cccc(Cl)c3)c3c(Cl)cccc3c2=O)-c2cccn21 [Compound 459a, 5-Chloro-4-(3-chlorobenzyl)-9H-pyrrolizino[1,2-b]quinoline-9,10(4H)-dione]	5 to 20	1 to 10	–	0.05 to 5	0.05 to 5	0.05 to 5	0.05 to 5	0.05 to 5	0.05 to 5	–	–	–	–	–	–
O=C1c2c(c(=O)c3ccccc3n2CCCN2CCCCC2)-c2cccn21 [Compound 786a, 6-(3-(Piperidin-1-yl)propyl)-5H-pyrrolizino[2,1-b]quinoline-5,11(6H)-dione]	–	1 to 10	0.05 to 5	–	–	–	–	–	–	0.05 to 5	0.05 to 5	0.05 to 5	0.05 to 5	0.05 to 5	0.05 to 5
O=C1c2c(nc3c(Cl)cccc3c2OCc2cccc(Cl)c2)-c2cccn21 [Compound 459b, 5-chloro-9-((3-chlorobenzyl)oxy)-10H-pyrrolizino[1,2-b]quinolin-10-one]	5 to 20	1 to 10	–	0.05 to 5	0.05 to 5	0.05 to 5	0.05 to 5	0.05 to 5	0.05 to 5	–	–	–	–	–	–
O=C1c2c(nc3c(F)c(N4CCNCC4)ccc3c2OCc2ccc(F)cc2)-c2cccn21 [Compound 485b, 5-fluoro-9-((4-fluorobenzyl)oxy)-6-(piperazin-1-yl)-10H-pyrrolizino[1,2-b]quinolin-10-one]	0.05 to 5	1 to 10	–	0.05 to 5	0.05 to 5	0.05 to 5	0.05 to 5	0.05 to 5	0.05 to 5	–	–	–	–	–	–
CCCOCCOc1c2c(nc3ccccc13)C(=O)n1cccc1-2 [Compound 790b, 11-(2-propoxyethoxy)-5H-pyrrolizino[2,1-b]quinolin-5-one]	–	1 to 10	0.05 to 5	–	–	–	–	–	–	0.05 to 5	0.05 to 5	0.05 to 5	0.05 to 5	0.05 to 5	0.05 to 5

Continued, in another order:

IC50 [4, 12] [mM]	IC50 [8] [µM]	IC50 ([4]; HT-1080 cells, 48 h, CCK-8) [mM]	SMILES	IC50 [1, 9] [mM]	IC50 [2, 10] [mM]	IC50 [3, 11] [mM]	IC50 [5, 13] [mM]	IC50 [6, 14] [mM]	IC50 [7, 15] [mM]	IC50 ([1]; 48 h, CCK-8) [mM]	IC50 ([2]; HFL1 cells, 48 h, CCK-8) [mM]	IC50 ([3]; LX-2, 48 h, LX-2 cells, CCK-8) [mM]	IC50 [5, 16] [mM]	IC50 [6, 17] [mM]	IC50 ([7]; RAT-iCell-C002 cells, CCK-8) [mM]
0.05 to 5	1 to 10	–	O=C1c2c(nc3cc(F)ccc3c2OCc2ccc(F)cc2)-c2cccn21 [Compound 490b, 6-fluoro-9-((4-fluorobenzyl)oxy)-10H-pyrrolizino[1,2-b]quinolin-10-one]	0.05 to 5	0.05 to 5	0.05 to 5	0.05 to 5	0.05 to 5	0.05 to 5	–	–	–	–	–	–
–	0.1 to 1	0.05 to 5	O=C1c2c(c(=O)c3ccccc3n2CCCN2CCNCC2)-c2cccn21 [Compound 793a, 6-(3-(Piperazin-1-yl)propyl)-5H-pyrrolizino[2,1-b]quinoline-5,11(6H)-dione]	–	–	–	–	–	–	0.05 to 5	0.05 to 5	0.05 to 5	0.05 to 5	0.05 to 5	0.05 to 5
0.05 to 5	1 to 10	–	N#Cc1cccc2c(=O)c3c(n(Cc4ccc(F)cc4)c12)-c1cccn1C3=O [Compound 449a, 4-(4-Fluorobenzyl)-9,10-dioxo-4,10-dihydro-9H-pyrrolizino[1,2-b]quinoline-5-carbonitrile]	0.05 to 5	0.05 to 5	0.05 to 5	0.05 to 5	0.05 to 5	0.05 to 5	–	–	–	–	–	–
0.05 to 5	1 to 10	–	O=C1c2c([nH]c3ccc(F)cc3c2=O)-c2cccn21 [Compound 156a, 7-Fluoro-9H-pyrrolizino[1,2-b]quinoline-9,10(4H)-dione]	0.05 to 5	< 0.05	< 0.05	0.05 to 5	0.05 to 5	0.05 to 5	–	–	–	–	–	–
0.05 to 5	1 to 10	–	O=C1c2c(n(C(=O)c3ccco3)c3ccc(F)cc3c2=O)-c2cccn21 [Compound 150a, 7-Fluoro-4-(furan-2-carbonyl)-9H-pyrrolizino[1,2-b]quinoline-9,10(4H)-dione]	0.05 to 5	0.05 to 5	0.05 to 5	0.05 to 5	< 0.05	0.05 to 5	–	–	–	–	–	–
–	1 to 10	0.05 to 5	N#Cc1ccccc1-c1ccc(Cn2c3c(c(=O)c4ccccc42)-c2cccn2C3=O)cc1 [Compound 795a, 4′-((5,11-Dioxo-5,11-dihydro-6H-pyrrolizino[2,1-b]quinolin-6-yl)methyl)-[1,1′-biphenyl]-2-carbonitrile]	–	–	–	–	–	–	0.05 to 5	0.05 to 5	0.05 to 5	0.05 to 5	0.05 to 5	0.05 to 5
0.05 to 5	1 to 10	–	O=C1c2c(nc3cccc(Cl)c3c2OCc2ccccc2F)-c2cccn21 [Compound 480b, 8-chloro-9-((2-fluorobenzyl)oxy)-10H-pyrrolizino[1,2-b]quinolin-10-one]	0.05 to 5	0.05 to 5	0.05 to 5	0.05 to 5	0.05 to 5	0.05 to 5	–	–	–	–	–	–
0.05 to 5	1 to 10	–	O=C1c2c(nc3c(C(F)(F)F)cccc3c2OCc2ccccc2Cl)-c2cccn21 [Compound 457b, 9-((2-chlorobenzyl)oxy)-5-(trifluoromethyl)-10H-pyrrolizino[1,2-b]quinolin-10-one]	0.05 to 5	0.05 to 5	0.05 to 5	0.05 to 5	0.05 to 5	0.05 to 5	–	–	–	–	–	–
0.05 to 5	0.1 to 1	–	O=C1c2c(nc3ccc(F)cc3c2O)-c2cccn21 [Compound 156b, 7-fluoro-9-hydroxy-10H-pyrrolizino[1,2-b]quinolin-10-one]	0.05 to 5	< 0.05	0.05 to 5	0.05 to 5	0.05 to 5	0.05 to 5	–	–	–	–	–	–
0.05 to 5	1 to 10	–	O=C1c2c(nc3cccc(C(F)(F)F)c3c2OCc2cccc(Cl)c2)-c2cccn21 [Compound 466b, 9-((3-chlorobenzyl)oxy)-8-(trifluoromethyl)-10H-pyrrolizino[1,2-b]quinolin-10-one]	0.05 to 5	0.05 to 5	0.05 to 5	0.05 to 5	0.05 to 5	0.05 to 5	–	–	–	–	–	–
0.05 to 5	0.1 to 1	–	O=C1c2c(n(Cc3ccc(Cl)cc3)c3c(F)cccc3c2=O)-c2cccn21 [Compound 453a, 4-(4-Chlorobenzyl)-5-fluoro-9H-pyrrolizino[1,2-b]quinoline-9,10(4H)-dione]	0.05 to 5	0.05 to 5	0.05 to 5	0.05 to 5	0.05 to 5	0.05 to 5	–	–	–	–	–	–
